Assay [1] can be described thus: Trypanosoma cruzi growth suppression in host cells – NIH3T3 host cells, beta-gal luminescence, confirmation (AID 2044).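 Further: intracellular parasites grown in NIH/3T3 mouse fibroblasts as host cells; luminescent beta-galactosidase reporter signal from transgenic T. cruzi replicating inside host cells; inhibitors lower the luminescence signal.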 It is filed as functional, cell-based.
A short description of assay [2]: NIH3T3 cell viability loss – ATP luminescence, mouse fibroblasts, counter-screen, dose response (AID 2010).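 Further: cells exposed to compound for about 90 hours before reading.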 It is filed as functional, cell-based. To be noted: NIH3T3. Background: A counterscreen serves to expose hits that act by an unwanted route or on another target.
For assay [3], the target named is T1, Streptokinase A (Streptococcus pyogenes serotype M1, UniProt P10520).
T1 sequence (P10520 whole entry): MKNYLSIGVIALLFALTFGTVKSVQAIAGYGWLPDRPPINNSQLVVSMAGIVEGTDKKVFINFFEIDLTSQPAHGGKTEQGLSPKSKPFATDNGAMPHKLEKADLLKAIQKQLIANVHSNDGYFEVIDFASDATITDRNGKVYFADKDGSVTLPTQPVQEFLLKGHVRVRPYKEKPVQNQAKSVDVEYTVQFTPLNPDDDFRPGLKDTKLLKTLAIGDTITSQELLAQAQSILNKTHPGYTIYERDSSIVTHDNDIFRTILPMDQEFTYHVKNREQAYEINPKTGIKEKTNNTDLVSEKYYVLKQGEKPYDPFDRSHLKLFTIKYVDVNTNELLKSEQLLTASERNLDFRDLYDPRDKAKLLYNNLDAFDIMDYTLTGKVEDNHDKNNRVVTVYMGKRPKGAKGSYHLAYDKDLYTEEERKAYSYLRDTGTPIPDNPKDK
The experiment in a line: viability-normalized secreted streptokinase activity reduction – plasminogen activation absorbance, OD405, dose response (AID 1914).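 Further: secreted streptokinase activity via plasminogen activation per viability signal from cell pellet.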 It is filed as functional, Streptococcus pyogenes M1 GAS.

Assay [4] has as its system Streptococcus sp. 'group A'. The experiment in a line: Streptococcus pyogenes SK(-)GAS viability under kanamycin – luminescence, BacTiterGlo, confirmation, counter-screen for streptokinase expression inhibitor project, dose response (AID 1900). As to conditions: Streptococcus sp. 'group A'. It counts as functional, organism-based.
Assay [5] deals with Streptococcus. The experiment in a line: GAS UMAA2166 growth inhibition – luminescence, BacTiterGlo, counter-screen for streptokinase expression inhibitor project, dose response (AID 1915).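 Further: potency for reduction of bacterial viability or growth.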 It is filed as functional, organism-based. To be noted: Streptococcus.
In assay [6] the target is Cytochrome P450 3A4 (Homo sapiens, UniProt P08684).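 Further: CYP3A4 tested as one member of a cytochrome P450 panel screen.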

What is called EC50 is the concentration needed to bring the measured effect to its halfway point. Broadly, the AC50 is the midpoint of the concentration-response curve, whichever way the signal moves.

Calls of active or inactive are those of the source. For most assays here, no stated cut-off is given here; in the data, actives have a measured EC50 and inactives only a lower limit.

Chain of Cytochrome P450 3A4 (P08684 whole entry): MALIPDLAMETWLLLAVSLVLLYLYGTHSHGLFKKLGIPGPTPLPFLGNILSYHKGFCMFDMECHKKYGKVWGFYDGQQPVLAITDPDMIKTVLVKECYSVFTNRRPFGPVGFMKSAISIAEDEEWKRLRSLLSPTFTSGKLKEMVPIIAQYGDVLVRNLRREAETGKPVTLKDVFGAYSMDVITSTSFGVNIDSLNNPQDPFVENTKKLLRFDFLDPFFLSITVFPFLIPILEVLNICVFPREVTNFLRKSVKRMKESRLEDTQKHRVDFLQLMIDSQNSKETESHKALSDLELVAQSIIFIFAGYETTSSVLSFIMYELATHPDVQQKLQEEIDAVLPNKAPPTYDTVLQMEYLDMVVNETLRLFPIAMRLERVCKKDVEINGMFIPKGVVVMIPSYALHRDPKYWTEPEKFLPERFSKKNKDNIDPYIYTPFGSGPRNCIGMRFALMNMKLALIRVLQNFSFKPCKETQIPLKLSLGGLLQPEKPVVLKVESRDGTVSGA

`CCCSc1nsc(NC(=O)CCC)n1`: the EC50 in assay [1] was 1.04 µM (active); in assay [2], > 60 µM (not active).

For `COc1ccc(C(=O)Nc2ccccc2-c2nnn(CC(=O)Nc3ccc4c(c3)OCCO4)n2)cc1`, the half-maximal effective concentration (EC50) in assay [3] was > 150 µM (not active); in assay [4], 41.1 µM (active); in assay [5], > 150 µM (inconclusive).

For `Cc1ccc(N2C(=O)CC(Sc3nc4ccccc4o3)C2=O)cc1Cl` (stereo not drawn), the values for the EC50 in assay [1] and in assay [2] were 2.16 µM (active) and 8.27 µM (active), respectively.

In the case of `COc1ccc(-n2c(=O)c(-c3cccs3)nc3cnc(Nc4cccc(OC)c4)nc32)cc1`, the AC50 in assay [6] was 1.58 µM (inconclusive).

Consider `COc1cc2c3cc1Oc1c(OC)c(OC)cc4c1[C@@H](Cc1ccc(O)c(c1)Oc1ccc(cc1)C[C@@H]3N(C)CC2)CN(C)C4`, for which the AC50 in assay [6] was 2.51 µM (inconclusive).

Consider `Cc1cc(N/N=C/c2cccc(Br)c2)nc2ccccc12`, for which the values for the EC50 in assay [3], in assay [4] and in assay [5] were > 150 µM (not active), 7.14 µM (active) and 7.4 µM (active), respectively.

As for `O=C(Nc1ccccc1N1CCN(C(=O)c2ccc(Cl)cc2)CC1)c1ccc(Br)cc1`, the EC50 in assay [1] is 1.29 µM (active); in assay [2], > 60 µM (not active).

On to `Cc1cc(C)c2[nH]c(O)c(N=Nc3ccc(C(=O)O)cc3)c2c1`, for which the EC50 in assay [3] is > 150 µM (not active); in assay [4], 4.53 µM (active); in assay [5], 11.1 µM (active).

`CSc1ccc(S(=O)(=O)NCC(=O)OCC(=O)N2CCCC2=O)cc1[N+](=O)[O-]`: the results for the EC50 in assay [3], in assay [4] and in assay [5] were > 150 µM (not active), 4.7 µM (active) and > 150 µM (not active), respectively.

For `CC1CCCC(C)N1c1nnc(NC(=O)c2cc(-c3ccc(Br)cc3)on2)s1` (stereo not drawn), the EC50 in assay [3] was > 150 µM (not active); in assay [4] it was 2.33 µM (active); in assay [5], 25.2 µM (active).

For the compound `CCOC(=O)C1CCN(C2=C(NS(=O)(=O)c3ccc(Cl)cc3)C(=O)c3ccccc3C2=O)CC1`, the figures for the EC50 in assay [3], in assay [4] and in assay [5] were 27 µM (active), 8.11 µM (active) and > 150 µM (not active), respectively.

In the case of `CNC(=O)c1sc(-c2cccnc2)nc1C`, the AC50 in assay [6] is 31.6 µM (inconclusive).

For the compound `CCOC(=O)c1c(NC(=O)CSc2nnnn2-c2ccccc2OCC)sc2c1CC(C)(C)NC2(C)C`, the EC50 in assay [1] is 1.31 µM (active); in assay [2], > 30 µM (not active).

On to `Clc1ccccc1Sc1ccc(-c2ccccn2)s1`, for which the EC50 is > 150 µM (not active) in assay [3], 17.6 µM (active) in assay [4] and > 150 µM (not active) in assay [5].

On to `c1ccc(Nc2nc3ccccc3[nH]2)nc1`, for which the EC50 in assay [3] was > 150 µM (not active); in assay [4], 3.59 µM (active); in assay [5] it was > 150 µM (not active).

As for `Cc1nc(NC(=O)c2ccc(Cl)cc2)sc1-c1csc(Nc2cccc(F)c2)n1`, the EC50 in assay [3] was > 150 µM (not active); in assay [4] it was 1.67 µM (active); in assay [5], 21.4 µM (active).

On to `COc1ccccc1CN1CCCC(CNC(=O)c2cccc3ccccc23)C1` (stereo not drawn), for which the values for the EC50 in assay [1] and in assay [2] were 0.679 µM (active) and > 60 µM (not active), respectively.

`C/C(=N\NC(=S)Nc1ccccc1C)c1cc2ccccc2o1`: the half-maximal effective concentration (EC50) in assay [1] was 2.18 µM (active); in assay [2] it was > 60 µM (not active).

As for `CC(C)CCn1c(=O)c(C(=O)N/N=C/c2cccc(F)c2)c(O)c2ccccc21`, the results for the EC50 in assay [4] and in assay [5] were 2.24 µM (active) and 7.41 µM (active), respectively.

On to `Cc1ccc2sc(NNC(=O)c3cc(-c4cccs4)nc4ccccc34)nc2c1C`, for which the EC50 in assay [4] is 0.758 µM (active); in assay [5], 1.48 µM (active).

For the compound `COc1ccc(-n2nc3cc(C)c(NC(=O)C(C)C)cc3n2)cc1`, the EC50 in assay [3], in assay [4] and in assay [5] was > 150 µM (not active) in each case.

Turning to `Cc1ccc(C)c(-c2nnc(NC(=O)CCS(=O)(=O)c3ccccc3)o2)c1`, the EC50 is > 150 µM (not active) in assay [3], 8.03 µM (active) in assay [4] and 141 µM (active) in assay [5].

Turning to `CCOc1ccccc1NC(=O)NCc1ccc2c(c1)OCO2`, the EC50 in assay [3], in assay [4] and in assay [5] was > 150 µM (not active) each time.

Turning to `O=C(NCc1ccco1)C(c1ccccc1F)N(Cc1cccnc1)C(=O)Cn1nnc2ccccc21` (stereo not drawn), the EC50 in assay [1] is 1.68 µM (active); in assay [2], > 60 µM (not active).

As to `CC(=O)NCCn1c(SCc2cc(F)ccc2F)nc2ccccc2c1=O`, the EC50 is 0.487 µM (active) in assay [1] and > 60 µM (not active) in assay [2].

Take `Cn1nc(-c2ccccc2)c(CSc2ccccc2Cl)c1Cl`: the EC50 in assay [3] was 22.8 µM (active); in assay [4] it was 22.8 µM (active); in assay [5], > 150 µM (not active).

As to `Cc1nc(N2CCN(Cc3ccccc3)CC2)nc2c1C(=O)CC(C)C2` (stereo not drawn), the figures for the EC50 in assay [1] and in assay [2] were 1.42 µM (active) and > 60 µM (not active), respectively.

With `CN(C)CCOCCOc1ccc(Cl)cc1Br`, the EC50 is 0.937 µM (active) in assay [1] and > 60 µM (inconclusive) in assay [2].

On to `COc1ccc(C(=O)C2CCCN(Cc3ccc4nonc4c3)C2)c(OC)c1` (stereo not drawn), for which the figures for the EC50 in assay [1] and in assay [2] were 0.97 µM (active) and > 60 µM (not active), respectively.

Consider `Fc1ccc(CNc2nc(-c3cccnc3)nc3ccccc23)cc1`, for which the EC50 is 0.67 µM (active) in assay [1] and > 60 µM (not active) in assay [2].

`Cc1nn(-c2ccc([N+](=O)[O-])cc2)c(O)c1/C=N/CCN1CCN(C(=O)c2ccc(Br)cc2)CC1`: the EC50 was 10.7 µM (active) in assay [1] and 39.9 µM (active) in assay [2].

As for `Cc1nc(S)c2c(n1)-c1ccccc1CC21CCCCC1`, the EC50 in assay [4] is 1.15 µM (active); in assay [5] it was 3.57 µM (active).

Take `N#C/C(=N\Nc1ccc(S(=O)(=O)N2CCOCC2)cc1)C(N)=S`: the EC50 in assay [3], in assay [4] and in assay [5] was > 150 µM (not active) in each case.

For `CC(C)(C)n1nnnc1C(c1cccnc1)N1CCN(c2ccccc2)CC1` (stereo not drawn), the 50% effective concentration (EC50) in assay [1] was 0.666 µM (active); in assay [2], > 60 µM (not active).

`Cc1ccc(OCC(=O)Nc2cc(S(=O)(=O)N3CCCCC3)ccc2N2CCN(C)CC2)c(C)c1`: the EC50 in assay [1] was 0.171 µM (active); in assay [2], > 60 µM (not active).

With `Cc1cccc(C(=O)NNC(=O)c2c(O)c3ccccc3n(C)c2=O)c1`, the values for the EC50 in assay [3], in assay [4] and in assay [5] were > 150 µM (not active), 4.62 µM (active) and 9.81 µM (active), respectively.

As to `CN1CCN(c2ccc(S(=O)(=O)N3CCCCC3)cc2NC(=O)COc2cccc(Cl)c2)CC1`, the EC50 in assay [1] is 0.629 µM (active); in assay [2] it was > 30 µM (not active).

For `Cc1ccc(C(=O)OC2OC(=O)C(Cl)=C2N2CCOCC2)cc1` (stereo not drawn), the EC50 in assay [4] was 0.884 µM (active); in assay [5] it was 2.04 µM (active).

These data come from ChEMBL document CHEMBL1201862, “PubChem BioAssay data set” (2004).
